Laboratory results reported in patent publication US20250154547A1, “REAGENTS AND METHODS USED IN DEPROTECTION OF 3'-O-AMINO POLYNUCLEOTIDES” (priority 2023, published 2025).
Like-named read-outs stand apart in the source and are kept apart here.

How the values were obtained:
[1] = system: dATP-3′-ONH2, dTTP-3′-ONH2, dCTP-3′-ONH2 or dGTP-3′-ONH2; assay: Deprotection study with various 3′-O-NH2 nucleotides (96-well screening, RP-HPLC); details: for pH of highest cleavage rate (optimal pH): 2 mM agent, 1 mM dNTP-3′-ONH2, pH 5.0-8.25
Description: The screening tests were performed in a 96-well plate with a reaction volume of 100 uL. Nucleoside triphosphate (dATP-3′-ONH2, dTTP-3′-ONH2, dCTP-3′-ONH2 or dGTP-3′-ONH2) were taken at 1 mM final concentration in one of four 50 mM buffers (A: sodium acetate pH 5.0, B: sodium phosphate pH 6.0, C: sodium phosphate 7.0, D: sodium bicarbonate pH around 8, i.e. 8.25). Tetrasodium carbonylbisphosphonate was added to the dNTPs solutions at 2 mM final concentration and incubated during 5, 20 or 60 mins prior to quenching with 2× concentration of hydroxylamine hydrochloride. The 96-well plate were agitated with Thermomixer at 25° C. or 40° C. The catalytic effect of magnesium on cleavage rate was also investigated. For this purpose, the same experiments were performed in the presence of 20 mM magnesium sulfate. Prior to HPLC analysis reaction mixtures were additionally quenched with acetone to convert 3′-ONH2 to acetoxime form. The samples were analyzed by RP-HPLC with gradual gradient of acetonitrile in 50 mM TEAB buffer (pH 8.5). The cleavage rate was determined based on the ratio between dNTP-3′-OH and dNTP-3′-acetoxime.
Xterra RP C18 Column: 4.6*50 mm, (3.5 um silica), Buffer A: 50 mM TEAA (pH 7.0), Buffer B: 100% ACN. Method: 0-2 min—0% ACN B, 6 min—10% ACN, 8 min—30% ACN, 8-10 min—100% ACN. Flowrate: 1.5 mL/min, no loop insert.

O=NO [sodium nitrite, reference compound]
conversion to dTTP-OH (dTTP-3′-ONH2; pH 5): about 80%
reaction speed with oxyamines compared with carbonylbisphosphonate (dTTP-3′-ONH2; pH 5): several times slower

CC(=O)P(=O)(O)O [acetylphosphonic acid, Acetylphosphonic acid]
conversion of 3′-ONH2 to 3′-OH (dTTP-3′-ONH2; 2 eq, 60 minutes, pH 6 or 7, 25° C.): about 60%

O=C(P(=O)(O)O)P(=O)(O)O [carbonylbisphosphonate, Tetrasodium Carbonylbisphosphonate]
conversion of 3′-ONH2 to 3′-OH (dTTP-3′-ONH2; 2 eq deprotecting agent, pH 5, 5 min, 25° C., 1 mM dTTP-3′-ONH2): 100%
pH of highest cleavage rate (optimal pH) [1]: around 5
pH of highest cleavage rate (optimal pH) ([1]; listed as carbonyl bisphosphonate): 5.0
Mg (II) impact on cleavage yield ([1]; 20 mM magnesium sulfate): Magnesium markedly facilitates the cleavage yield at higher pH
